According to PMC6134108, “Nystatin-like Pseudonocardia polyene B1, a novel disaccharide-containing antifungal heptaene antibiotic” (Scientific Reports, 2018):
Read-outs that look alike come from different tables or passages of the source.

Key:
[1] = 1 mg/kg dose
[2] = system: ergosterol-containing membranes; experiment: Preliminary SPR experiments; format: binding; settings: ergosterol-containing membranes, unpublished data
[3] = 7-day repeated intravenous dose toxicity; format: in vivo, mice; settings: both sexes, ICR, mouse, in vivo; mice, 7-day repeated intravenous doses; read-out: MTD, maximal tolerated dose
Procedure: (§1) All in vivo mouse toxicity studies were conducted according to Testing Guidelines for Safety Evaluation of Drugs[32] and the Organisation for Economic Co-operation and Development (OECD) Guideline[33]. Male and female ICR mice were used 7 weeks old for the toxicity test. […]

ICR mice [4] = experiment: 7-day repeated intravenous dose toxicity; format: in vivo
Procedure: as §1

[5] = Microsomal (metabolic) stability; format: in vitro ADME; settings: human liver microsomes 1.0 mg/ml
Procedure: A metabolic stability experiment was conducted to calculate the rate of disappearance of polyene macrolides following in vitro incubation with human microsomes. Working solutions of polyene macrolides were prepared from a 10 mM stock solution in dimethyl sulfoxide (DMSO) diluted to a final concentration of 1 µM in 0.1 M potassium phosphate buffer (pH 7.4). Each incubation mixture included 1 mg/mL human microsomal protein (BD Gentest^TM, Franklin Lakes, NJ, USA) and 1 mM NADPH. The reactions were terminated at 0, 15, 45, and 80 min. The reaction mixtures were vigorously vortexed and then analyzed using the API2000 LC-MS/MS) system (Applied Biosystems, USA) using an Xterra MS C18 (3.5-µm, 2.1 × 50 mm, Waters).

in vivo = settings: mouse, 1 mg/kg
From the text: Supplement 41598_2018_31801_MOESM1_ESM.docx, table 4: Table S4.

horse blood cells = format: cell-based; settings: 90% hemolysis against horse blood cells; ± percentage standard deviation
Procedure: (§2) For the minimum inhibitory concentration (MIC) assay, strains for testing were grown on YPD agar for 24 hours, and subcultured to YPD broth medium. Whole strains were incubated for 18 hours at 35 °C by shaking incubator. Grown organisms were diluted with fresh RPMI 1640 medium to appropriate concentration, 5 × 10^4 CFU/ml. Cultures were inoculated to 96-well plates containing antifungal medium. All compounds were dissolved using Dimethyl Sulfoxide (DMSO) and diluted broth media. Fungal diluted solution and antifungal medium were mixed at 1:1 ratio so total 200 ul mixed medium was made. Whole experiment plates were incubated for 24 hours at 37 °C. […] The MICs were calculated in duplicate using the Clinical and Laboratory Standards Institute M27-A3 microbroth methodology. Hemolysis experiments and the 3-(4,5-dimethylthiazol-2-yl)-5-(3-carboxymethoxyphenyl)-2-(4-sulfophenyl)-2H-tetrazolium (MTS) cell proliferation colorimetric assay were performed following known procedures[12],[27],[29].

[6] = Single intravenous dose acute toxicity; format: in vivo, mice; settings: ICR, mouse, in vivo, single intravenous administration
Procedure: (§3) All in vivo mouse toxicity studies were conducted according to Testing Guidelines for Safety Evaluation of Drugs[32] and the Organisation for Economic Co-operation and Development (OECD) Guideline[33]. Male and female ICR mice were used 7 weeks old for the toxicity test. […] The single doses were 1, 2.5, and 5 mg per kg body weight.

ICR mice [7] = experiment: Single intravenous dose acute toxicity; format: in vivo
Procedure: as §3

C. albicans SL28 = experiment: MIC assay (CLSI M27-A3 microbroth); format: cell-based; settings: Candida albicans; C. albicans SL28; no visible growth; read-out: Antifungal activity (MIC)
Procedure: as §2

[8] = system: Candida albicans KCTC7965; experiment: MIC assay (CLSI M27-A3 microbroth); format: cell-based; settings: Candida albicans KCTC7965; no visible growth; read-out: Antifungal activity (MIC)
Procedure: as §2

C[C@@H]1[C@H](O)[C@@H](C)/C=C/C=C/C=C/C=C/C=C/C=C/C=C/[C@H](O[C@@H]2O[C@H](C)[C@@H](O)[C@H](N)[C@@H]2O)C[C@@H]2O[C@](O)(C[C@@H](O)C[C@@H](O)[C@H](O)CC[C@@H](O)C[C@@H](O)CC(=O)O[C@H]1C)C[C@H](O)[C@H]2C(=O)O [Amphotericin B, amphotericin B]
0: Deaths on day after start of treatment (ICR mice [4]; female, repeated iv 0.5mg/kg, day 0) | Deaths on day after start of treatment (ICR mice [4]; female, repeated iv 0.5mg/kg, day 1) | Deaths on day after start of treatment (ICR mice [4]; female, repeated iv 0.5mg/kg, day 2) | Deaths on day after start of treatment (ICR mice [4]; female, repeated iv 0.5mg/kg, day 3) | Deaths on day after start of treatment (ICR mice [4]; female, repeated iv 0.5mg/kg, day 4) | Deaths on day after start of treatment (ICR mice [4]; female, repeated iv 0.5mg/kg, day 5) | Deaths on day after start of treatment (ICR mice [4]; female, repeated iv 0.5mg/kg, day 6) | Deaths on day after start of treatment (ICR mice [4]; female, repeated iv 0.5mg/kg, day 7) | Deaths on day after start of treatment (ICR mice [4]; female, repeated iv 1.5mg/kg, day 0) | Deaths on day after start of treatment (ICR mice [4]; female, repeated iv 1.5mg/kg, day 1) | Deaths on day after start of treatment (ICR mice [4]; female, repeated iv 1.5mg/kg, day 2) | Deaths on day after start of treatment (ICR mice [4]; female, repeated iv 1.5mg/kg, day 3) | Deaths on day after start of treatment (ICR mice [4]; female, repeated iv 1.5mg/kg, day 4) | Deaths on day after start of treatment (ICR mice [4]; female, repeated iv 1.5mg/kg, day 5) | Deaths on day after start of treatment (ICR mice [4]; female, repeated iv 1.5mg/kg, day 6) | Deaths on day after start of treatment (ICR mice [4]; female, repeated iv 1.5mg/kg, day 7) | Deaths on day after start of treatment (ICR mice [4]; male, repeated iv 0.5mg/kg, day 0) | Deaths on day after start of treatment (ICR mice [4]; male, repeated iv 0.5mg/kg, day 1) | Deaths on day after start of treatment (ICR mice [4]; male, repeated iv 0.5mg/kg, day 2) | Deaths on day after start of treatment (ICR mice [4]; male, repeated iv 0.5mg/kg, day 3) | Deaths on day after start of treatment (ICR mice [4]; male, repeated iv 0.5mg/kg, day 4) | Deaths on day after start of treatment (ICR mice [4]; male, repeated iv 0.5mg/kg, day 5) | Deaths on day after start of treatment (ICR mice [4]; male, repeated iv 0.5mg/kg, day 6) | Deaths on day after start of treatment (ICR mice [4]; male, repeated iv 1.5mg/kg, day 0) | Deaths on day after start of treatment (ICR mice [4]; male, repeated iv 1.5mg/kg, day 1) | Deaths on day after start of treatment (ICR mice [4]; male, repeated iv 1.5mg/kg, day 2) | Deaths on day after start of treatment (ICR mice [4]; male, repeated iv 1.5mg/kg, day 3) | Deaths on day after start of treatment (ICR mice [4]; male, repeated iv 1.5mg/kg, day 4) | Deaths on day after start of treatment (ICR mice [4]; male, repeated iv 1.5mg/kg, day 5) | Deaths on day after start of treatment (ICR mice [7]; female, single iv 1mg/kg, day 0) | Deaths on day after start of treatment (ICR mice [7]; female, single iv 1mg/kg, day 1) | Deaths on day after start of treatment (ICR mice [7]; female, single iv 1mg/kg, day 3) | Deaths on day after start of treatment (ICR mice [7]; female, single iv 1mg/kg, day 4) | Deaths on day after start of treatment (ICR mice [7]; female, single iv 1mg/kg, day 5) | Deaths on day after start of treatment (ICR mice [7]; female, single iv 1mg/kg, day 6) | Deaths on day after start of treatment (ICR mice [7]; female, single iv 1mg/kg, day 7) | Deaths on day after start of treatment (ICR mice [7]; female, single iv 2.5mg/kg, day 0) | Deaths on day after start of treatment (ICR mice [7]; female, single iv 2.5mg/kg, day 3) | Deaths on day after start of treatment (ICR mice [7]; female, single iv 2.5mg/kg, day 4) | Deaths on day after start of treatment (ICR mice [7]; female, single iv 2.5mg/kg, day 5) | Deaths on day after start of treatment (ICR mice [7]; female, single iv 2.5mg/kg, day 7) | Deaths on day after start of treatment (ICR mice [7]; female, single iv 5mg/kg, day 1) | Deaths on day after start of treatment (ICR mice [7]; female, single iv 5mg/kg, day 3) | Deaths on day after start of treatment (ICR mice [7]; female, single iv 5mg/kg, day 4) | Deaths on day after start of treatment (ICR mice [7]; female, single iv 5mg/kg, day 5) | Deaths on day after start of treatment (ICR mice [7]; female, single iv 5mg/kg, day 6) | Deaths on day after start of treatment (ICR mice [7]; female, single iv 5mg/kg, day 7) | Deaths on day after start of treatment (ICR mice [7]; male, single iv 1mg/kg, day 0) | Deaths on day after start of treatment (ICR mice [7]; male, single iv 1mg/kg, day 1) | Deaths on day after start of treatment (ICR mice [7]; male, single iv 1mg/kg, day 2) | Deaths on day after start of treatment (ICR mice [7]; male, single iv 1mg/kg, day 3) | Deaths on day after start of treatment (ICR mice [7]; male, single iv 1mg/kg, day 4) | Deaths on day after start of treatment (ICR mice [7]; male, single iv 1mg/kg, day 5) | Deaths on day after start of treatment (ICR mice [7]; male, single iv 1mg/kg, day 6) | Deaths on day after start of treatment (ICR mice [7]; male, single iv 1mg/kg, day 7) | Deaths on day after start of treatment (ICR mice [7]; male, single iv 2.5mg/kg, day 0) | Deaths on day after start of treatment (ICR mice [7]; male, single iv 2.5mg/kg, day 1) | Deaths on day after start of treatment (ICR mice [7]; male, single iv 2.5mg/kg, day 3) | Deaths on day after start of treatment (ICR mice [7]; male, single iv 2.5mg/kg, day 4) | Deaths on day after start of treatment (ICR mice [7]; male, single iv 2.5mg/kg, day 5) | Deaths on day after start of treatment (ICR mice [7]; male, single iv 2.5mg/kg, day 6) | Deaths on day after start of treatment (ICR mice [7]; male, single iv 2.5mg/kg, day 7) | Deaths on day after start of treatment (ICR mice [7]; male, single iv 5mg/kg, day 1) | Deaths on day after start of treatment (ICR mice [7]; male, single iv 5mg/kg, day 2) | Deaths on day after start of treatment (ICR mice [7]; male, single iv 5mg/kg, day 3) | Deaths on day after start of treatment (ICR mice [7]; male, single iv 5mg/kg, day 4) | Deaths on day after start of treatment (ICR mice [7]; male, single iv 5mg/kg, day 5) | Deaths on day after start of treatment (ICR mice [7]; male, single iv 5mg/kg, day 6) | Deaths on day after start of treatment (ICR mice [7]; male, single iv 5mg/kg, day 7)
0.2 L/kg: Vd (in vivo)
101%: remaining at 80 min, 1 µM ([5]; pH 7.4, 1 µM, 80-min incubation)
> 1.33 h: half-life at 1 µM ([5]; pH 7.4)
4.65 ± 0.17 µg/mL: Hemolytic activity (MHC, minimum hemolytic concentration) (horse blood cells)
2.95 mg/kg: LD50 at 7 days ([6]; male mice, read-out: median lethal dose (LD50))
22200 ng·h/mL: AUC(0-t) (in vivo)
0.5 mL/min/kg: clearance (in vivo)
3: Deaths on day after start of treatment (ICR mice [7]; female, single iv 2.5mg/kg, day 2)
1.5 mg/kg: MTD at 7 days [3]
5: Deaths on day after start of treatment (ICR mice [7]; male, single iv 5mg/kg, day 0)
Low: Clearance class [5]
29300 ng·h/mL: AUC(0-inf) (in vivo)
4: Deaths on day after start of treatment (ICR mice [7]; female, single iv 5mg/kg, day 0)
1.6 mg/kg: LD50 at 7 days ([6]; female mice, read-out: median lethal dose (LD50))
2.3 mg/kg: LD50 at 7 days ([6]; both sexes, mice, read-out: LD50, median lethal dose (dose causing 50% mortality))
1 µg/mL: MIC (C. albicans SL28) | MIC [8]
1: Deaths on day after start of treatment (ICR mice [4]; male, repeated iv 1.5mg/kg, day 6) | Deaths on day after start of treatment (ICR mice [7]; female, single iv 1mg/kg, day 2) | Deaths on day after start of treatment (ICR mice [7]; female, single iv 2.5mg/kg, day 1) | Deaths on day after start of treatment (ICR mice [7]; female, single iv 2.5mg/kg, day 6) | Deaths on day after start of treatment (ICR mice [7]; female, single iv 5mg/kg, day 2)
< 8600 µL/min/mg: microsomal CLint at 1 µM ([5]; pH 7.4)
5.5 h: MRT inf (in vivo)
2: Deaths on day after start of treatment (ICR mice [7]; male, single iv 2.5mg/kg, day 2)
killed all the tested rats: lethality in rats [1]
higher affinity: affinity compared with NPP B1 [2]
3.4 h: half-life (in vivo)
